The values that follow come from patent US20080312301A1, “Substituted N-Benzo[D]Isoxazol-3-Yl-Amine Compounds as Inhibitors of Mglur5, Serotonin (5-Ht) and Noradrenaline Receptors, and Uses Thereof” (Gruenenthal GmbH, priority 2005, published 2008).

As a reminder, the inhibition is the change of the read-out against control, counted positive when it falls. Lower therefore signals a response near the control.

The target in this assay is T1, mGluR5 receptor (Sus scrofa, UniProt I3LUI7).
T1 construct: 450 μg of protein from brain homogenate are incubated with 5 nM^3[H]-MPEP; from tissue; host or cells: pig brain hemispheres without medulla, cerebellum and pons
T1 sequence (I3LUI7 19-1212): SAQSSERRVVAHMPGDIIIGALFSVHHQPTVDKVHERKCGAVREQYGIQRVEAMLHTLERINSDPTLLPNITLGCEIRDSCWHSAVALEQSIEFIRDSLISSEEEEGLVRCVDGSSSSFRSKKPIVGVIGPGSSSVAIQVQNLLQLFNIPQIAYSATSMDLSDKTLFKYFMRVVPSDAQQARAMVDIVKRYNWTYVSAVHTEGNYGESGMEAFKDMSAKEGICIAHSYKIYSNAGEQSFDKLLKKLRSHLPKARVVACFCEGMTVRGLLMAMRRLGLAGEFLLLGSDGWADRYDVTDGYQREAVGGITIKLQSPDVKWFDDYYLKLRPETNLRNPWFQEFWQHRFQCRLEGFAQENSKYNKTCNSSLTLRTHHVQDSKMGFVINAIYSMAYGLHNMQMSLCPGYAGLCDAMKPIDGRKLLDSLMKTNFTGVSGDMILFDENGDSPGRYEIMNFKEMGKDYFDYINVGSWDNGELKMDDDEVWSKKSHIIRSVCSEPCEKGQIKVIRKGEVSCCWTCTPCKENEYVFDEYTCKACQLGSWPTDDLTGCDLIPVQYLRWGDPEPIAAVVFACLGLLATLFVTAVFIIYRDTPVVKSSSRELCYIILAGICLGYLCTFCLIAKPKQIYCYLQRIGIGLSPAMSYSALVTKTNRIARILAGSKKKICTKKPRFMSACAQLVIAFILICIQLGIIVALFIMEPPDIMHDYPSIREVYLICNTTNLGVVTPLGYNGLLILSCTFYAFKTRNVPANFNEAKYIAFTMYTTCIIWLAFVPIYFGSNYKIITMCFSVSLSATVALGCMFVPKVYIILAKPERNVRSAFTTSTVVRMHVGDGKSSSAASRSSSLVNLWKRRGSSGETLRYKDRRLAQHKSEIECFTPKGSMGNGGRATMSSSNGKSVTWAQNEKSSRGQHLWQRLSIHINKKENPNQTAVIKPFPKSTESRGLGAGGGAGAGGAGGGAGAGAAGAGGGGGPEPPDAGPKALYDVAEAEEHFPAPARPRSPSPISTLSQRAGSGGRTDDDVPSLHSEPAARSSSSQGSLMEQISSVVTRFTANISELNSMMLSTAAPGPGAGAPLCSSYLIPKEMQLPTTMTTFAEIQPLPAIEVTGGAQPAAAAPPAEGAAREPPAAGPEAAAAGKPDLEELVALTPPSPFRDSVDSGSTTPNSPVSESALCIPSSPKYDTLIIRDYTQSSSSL
Description: Affinity for the mGluR5 receptor: displacement of 3[H]-MPEP binding in pig brain homogenate. The following applies: 10 μM compound, 5 nM 3[H]-MPEP. As for the experimental part:
II. Method for Determining the Affinity for the mGluR5 Receptor
In each case 450 μg of protein from brain homogenate are incubated with 5 nM^3[H]-MPEP (Tocris, order No. R1212) (MPEP=2-methyl-6-[…]) and the compounds to be investigated (10 μM in the assay) in buffer (as above) in 250 μl incubation mixtures in 96-well microtiter plates at room temperature for 60 min.
The filter plates were then dried at 55° C. for 60 min.
Take `Cc1ccc(COc2cccc3onc(NC(=O)c4cccc([N+](=O)[O-])c4)c23)cc1` [Example 167, N-[4-(4-methylbenzyloxy)benzo[d]isoxazol-3-yl]-3-nitrobenzamide]: 10 µM produced 39.7% inhibition. Still for that read-out and setting: the value for `O=C(Nc1noc2ccccc12)c1cccnc1` [Example 90, N-benzo[d]isoxazol-3-ylnicotinamide] was 50.3%; that for `Nc1c(F)c(F)c2c(NC(=O)c3ccc(F)cc3F)noc2c1F` [Example 177, N-(6-amino-4,5,7-trifluorobenzo[d]isoxazol-3-yl)-2,4-difluorobenzamide] was 30.8%. Take `O=C(Nc1noc2ccc(F)cc12)c1ccccc1Br` [Example 103, 2-bromo-N-(5-fluorobenzo[d]isoxazol-3-yl)benzamide]: the inhibition at 10 µM amounted to 41.2%. The molecule `CCCCC(CC)C(=O)Nc1noc2cccc(OC)c12` (stereo not shown) [Example 159, N-(4-methoxybenzo[d]isoxazol-3-yl)-2-ethylhexanamide] yielded an inhibition at 10 µM of 43.2%.

As for `Cc1cccc(C(=O)Nc2noc3ccc(C)cc23)c1` [Example 123, 3-methyl-N-(5-methylbenzo[d]isoxazol-3-yl)benzamide], the “mGluR5 receptor inhibition of the 3[H]-MPEP binding in % (10 μM)” value (“mGluR5 receptor inhibition … in % (10 μM)” for short) was 89.70%.

With `O=C(Nc1noc2cc(Br)ccc12)c1cccs1` [Example 116, thiophene-2-(6-bromobenzo[d]isoxazol-3-yl)carboxamide], the “mGluR5 receptor inhibition … in % (10 μM)” value is 37.71%.

Molecule `COc1cccc2onc(NC(=O)c3ccccc3C)c12` [Example 156, N-(4-methoxybenzo[d]isoxazol-3-yl)-2-methylbenzamide] registered an inhibition at 10 µM of 33.8%.

The molecule `Cc1ccc2onc(NC(=O)c3ccccc3)c2c1` [Example 118, N-(5-methylbenzo[d]isoxazol-3-yl)benzamide] displayed an inhibition at 10 µM of 69%. Same read-out and setting: for `Cc1ccc2onc(NC(=O)c3cccnc3Cl)c2c1` [Example 128, 2-chloro-N-(5-methylbenzo[d]isoxazol-3-yl)nicotinamide] the value was 33.1%; for `O=C(Nc1noc2c(F)cccc12)c1ccccc1` [Example 95, N-(7-fluorobenzo[d]isoxazol-3-yl)benzamide], 45.8%. Still for that read-out and setting: the value for `O=C(Nc1noc2ccc(Br)cc12)c1cc(F)ccc1C(F)(F)F` [Example 141, N-(5-bromobenzo[d]isoxazol-3-yl)-5-fluoro-2-trifluoromethylbenzamide] was 33.1%; that for `Cc1ccc2onc(NC(=O)c3ccc(C#N)cc3)c2c1` [Example 144, 4-cyano-N-(5-methylbenzo[d]isoxazol-3-yl)benzamide] was 48.8%; that for `CC(C)(C)CC(=O)Nc1noc2cc(Br)ccc12` [Example 117, N-(6-bromobenzo[d]isoxazol-3-yl)-3,3-dimethylbutyramide] was 30.8%. Take `CC(C)(C)CC(=O)Nc1noc2cccc(OCC(F)(F)F)c12` [Example 164, 3,3-dimethyl-N-[4-(2,2,2-trifluoroethoxy)benzo[d]isoxazol-3-yl]butyramide]: the inhibition at 10 µM came to 33.4%.

Regarding `CC(C)(C)c1ccc(C(=O)Nc2noc3ccc(F)cc23)cc1` [Example 104, 4-tert-butyl-N-(5-fluorobenzo[d]isoxazol-3-yl)benzamide], the inhibition at 10 µM was found to be 44.6%. On the same count and under the same terms, for `CCC(C)C(=O)Nc1noc2cccc(Cl)c12` (stereo not shown) [Example 154, N-(4-chlorobenzo[d]isoxazol-3-yl)-2-methylbutyramide] the value was 30%; for `Cc1ccc2onc(NC(=O)c3ccccc3F)c2c1` [Example 122, 2-fluoro-N-(5-methylbenzo[d]isoxazol-3-yl)benzamide], 41%; for `O=C(Nc1noc2cc(Cl)ccc12)c1ccc(F)cc1C(F)(F)F` [Example 110, N-(6-chlorobenzo[d]isoxazol-3-yl)-4-fluoro-2-trifluoromethylbenzamide], 36%. Turning to `O=C(Nc1noc2cc(Cl)ccc12)c1ccccc1Cl` [Example 108, 2-chloro-N-(6-chlorobenzo[d]isoxazol-3-yl)benzamide], 10 µM produced 34.7% inhibition. Regarding `CCC(C)C(=O)Nc1noc2cccc(OCC(F)(F)F)c12` (stereo not shown) [Example 163, 2-methyl-N-[4-(2,2,2-trifluoroethoxy)benzo[d]isoxazol-3-yl]butyramide], the inhibition at 10 µM is 36%. Molecule `O=C(Nc1noc2cc(Br)ccc12)c1ccc(Cl)c(Cl)c1` [Example 115, N-(6-bromobenzo[d]isoxazol-3-yl)-3,4-dichlorobenzamide] came in with an inhibition at 10 µM of 35.8%. On the same count and under the same terms, the value for `CCC(C)C(=O)Nc1noc2cccc(OC)c12` (stereo not shown) [Example 160, N-(4-methoxybenzo[d]isoxazol-3-yl)-2-methylbutyramide] was 54%. The same measure, in the same setting: the value for `Cc1ccc2onc(NC(=O)c3ccccc3Cl)c2c1` [Example 120, 2-chloro-N-(5-methylbenzo[d]isoxazol-3-yl)benzamide] was 47.9%. With `Cc1cc(C(=O)Nc2noc3ccc(F)cc23)c(C)o1` [Example 132, 2,5-dimethylfuran-3-(5-fluorobenzo[d]isoxazol-3-yl)carboxamide], the “mGluR5 receptor inhibition … in % (10 μM)” value amounted to 36.88%. `CN(C)c1cccc2onc(NC(=O)c3cccc([N+](=O)[O-])c3)c12` [Example 171, N-(4-dimethylaminobenzo[d]isoxazol-3-yl)-3-nitrobenzamide] gave an inhibition at 10 µM of 42.3%. Same read-out and setting: for `Cc1ccc(C(=O)Nc2noc3ccc(Br)cc23)cc1` [Example 138, N-(5-bromobenzo[d]isoxazol-3-yl)-4-methylbenzamide] the value was 32%; for `O=C(Nc1noc2cccc(F)c12)c1ccc(Cl)cc1` [Example 148, 4-chloro-N-(4-fluorobenzo[d]isoxazol-3-yl)benzamide], 79.5%.

`O=C(Nc1noc2cccc(Cl)c12)C12CC3CC(CC(C3)C1)C2` [Example 151, adamantane-1-(4-chlorobenzo[d]isoxazol-3-yl)carboxamide]: the “mGluR5 receptor inhibition … in % (10 μM)” value is on record as 74.05%. Molecule `CC(C)(C)c1ccc(C(=O)Nc2noc3cc(Cl)ccc23)cc1` [Example 109, 4-tert-butyl-N-(6-chlorobenzo[d]isoxazol-3-yl)benzamide] returned an inhibition at 10 µM of 35.2%. In the case of `CN(C)c1cccc2onc(NC(=O)c3cc4ccccc4s3)c12` [Example 173, benzo[b]thiophene-2-(4-dimethylaminobenzo[d]isoxazol-3-yl)carboxamide], the “mGluR5 receptor inhibition … in % (10 μM)” value amounted to 43.55%. In turn, `CCCCC(CC)C(=O)Nc1noc2ccccc12` (stereo not shown) [Example 85, N-benzo[d]isoxazol-3-yl-2-ethylhexanamide] gave an inhibition at 10 µM of 63.2%. `O=C(Nc1noc2cccc(Cl)c12)c1ccccc1` [Example 152, N-(4-chlorobenzo[d]isoxazol-3-yl)benzamide] yielded an inhibition at 10 µM of 31.6%. Take `CCCCC(CC)C(=O)Nc1noc2cc(Cl)ccc12` (stereo not shown) [Example 112, N-(6-chlorobenzo[d]isoxazol-3-yl)-2-ethylhexanamide]: testing at 10 µM gave an inhibition of 35.1%. The same measure, in the same setting: the value for `O=C(Nc1noc2cc(Cl)ccc12)c1cc(F)c(Cl)cc1Cl` [Example 111, 2,4-dichloro-N-(6-chlorobenzo[d]isoxazol-3-yl)-5-fluorobenzamide] was 43%.

As to `Cc1cc(C(=O)Nc2noc3cccc(OCC(F)(F)F)c23)c(C)o1` [Example 166, 2,5-dimethylfuran-3-[4-(2,2,2-trifluoroethoxy)benzo[d]isoxazol-3-yl]carboxamide], the “mGluR5 receptor inhibition … in % (10 μM)” value turned out to be 32.39%. `Cc1ccc2onc(NC(=O)c3ccccc3C)c2c1` [Example 125, 2-methyl-N-(5-methylbenzo[d]isoxazol-3-yl)benzamide] came in with an inhibition at 10 µM of 40.6%. `O=C(Nc1noc2cc(F)ccc12)C12CC3CC(CC(C3)C1)C2` [Example 102, adamantane-1-(6-fluorobenzo[d]isoxazol-3-yl)carboxamide]: the “mGluR5 receptor inhibition … in % (10 μM)” value worked out at 52.11%. `O=C(Nc1noc2c(F)cccc12)c1ccc(F)cc1` [Example 96, 4-fluoro-N-(7-fluorobenzo[d]isoxazol-3-yl)benzamide] showed an inhibition at 10 µM of 30.5%. The same measure, in the same setting: the value for `O=C(Nc1noc2cc(F)ccc12)c1cc(F)cc(F)c1` [Example 100, 3,5-difluoro-N-(6-fluorobenzo[d]isoxazol-3-yl)benzamide] was 33.3%.
